According to patent publication US20160022818A1, “PHARMACEUTICAL FORMULATION COMPRISING LIPASE INHIBITOR HAVING INCREASED DISSOLUTION RATE AND REDUCED SIDE EFFECTS, AND METHOD FOR PREPARING SAME” (UNIVERSITY-INDUSTRY FOUNDATION, YONSEI UNIVERSITY, priority 2013, published 2016):

Columns and labels:
[1] = Comparative dissolution test; type: physicochemical; conditions: 900 ml 1% sodium lauryl sulfate, paddle 75 rpm, HPLC-UV
Procedure: A comparative dissolution test was performed on the compositions prepared by Examples 1 to 3 and on the compositions prepared by Comparative Examples 1 and 2.

[2] = tested on: triglyceride levels in blood; assay: Measurement of triglyceride levels in blood by using SD-rat model; type: in vivo; conditions: SD-rats, oral 2.5 mg orlistat per kg
Procedure: Using 7-week old SD-rats (Samtaco Bio Korea Inc.), 1 ml of an olive oil (Samchun Pure Chemical Co., Ltd., Korea) was administered to each group and a drug suspended in a 0.25% HPMC (hydroxypropylmethyl cellulose) solution (Shin-Etsu chemical, Japan) was orally administered to the rats (corresponds to 2.5 mg of orlistat per kg of the body weight). The control group was administered with distilled water instead of the drug suspension. The blood of rats was collected for a fixed time interval, the triglyceride levels in the blood were measured by Cleantech TG-S of Asan Pharmaceutical, and, with the triglyceride level in the blood before testing used as a standard, changes in triglyceride levels in the blood after administration of an olive oil and drugs were plotted in FIG. 4 and Table 4.

[3] = Oily leakage test using SD-rat model; type: in vivo; conditions: of 26 SD-rats; 0.5 ml olive oil, oral 5 mg orlistat per kg, 6 hours later
Procedure: 7-week old SD-rats were used, 0.5 ml of an olive oil was administered for each group, and a drug was suspended in a 0.25% HPMC solution to be orally administered to the rats (corresponds to 5 mg of orlistat per kg of the body weight). 6 hours later, the evaluation was assessed through the number of rats having oily leakage from their anuses.

Compound: CCCCCCCCCCC[C@@H](C[C@@H]1OC(=O)[C@H]1CCCCCC)OC(=O)[C@H](CC(C)C)NC=O [Comparative Example 1, orlistat]
- Dissolution rate at 10 minutes ([1]; Table 1): 7.0%
- Dissolution rate at 10 minutes ([1]; Table 3, various porous adsorbents): 7.0%
- AUC0->12 h (triglyceride level in blood) ([2]; 1 ml olive oil): 648.0 ± 203.2 mg·h/dL
- Cmax (triglyceride level in blood) ([2]; 1 ml olive oil): 140.7 ± 64.1 mg/dL
- Triglyceride level in blood (words, FIG. 4) ([2]; olive oil): did not show an increase
- Population having oily leakage [3]: 17 rats
